Data as given in patent US12721934B2, “Cationic nanodrug, preparation method therefor, and drug-loaded implantable medical device” (SHANGHAI MICROPORT MEDICAL (GROUP) CO., LTD., priority 2019, dated 2026).

Test system: Vascular smooth muscle cells (SMCs)
Test: Cytotoxicity of the cationic substances (MTT)
Assay type: cell-based
Protocol: Vascular smooth muscle cells (SMCs) were collected and the cell concentration was determined using a hemocytometer. The cell concentration was adjusted to […] using a liquid cell culture medium. The cell suspension was dispensed on a 96-well plate ([…] cells in each well) and the wells were divided into groups (a control group and four test groups), four wells for each group. After the cells were cultivated for 24 hours under regular cell culture conditions, the culture medium was pipetted away. Each of the fresh culture media and culture media respectively containing the suspensions of non-drug loaded nanoparticles prepared in Example 14, Comparative Example 2 and Comparative Example 3 was added (the cationic substance in each of the three examples has a same concentration). After the cells were further cultivated for 24 hours, 50 μL of an MTT agent was dispensed into each well, and the cells were then incubated for 4 hours in a CO2 incubator. After that, the culture media were carefully pipetted away, and 150 μL of dimethyl sulfoxide was added to each well. The plate was then shaken gently to facilitate dissolution of formazan. Absorbance of each well at 490 nm was measured using a microplate reader, and cell survival rates were calculated according to: […]

SMILES: CCCCCCCCCCCC[N+](C)(C)CCCCCCCCCCCC.[Br-] [DMAB, didodecyldimethylammonium bromide]
- Cytotoxicity (in words): serious cytotoxicity

SMILES: CCCCCCCC/C=C\CCCCCCCC(=O)OCC(C[N+](C)(C)C)OC(=O)CCCCCCC/C=C\CCCCCCCC.[Cl-] (centres unmarked) [DOTAP, 1,2-dioleoyl-3-trimethylammonium-propane chloride]
- Cytotoxicity (in words): does not show noticeable cytotoxicity
